# Source: patent US6391911B1, “Coadministration of lucanthone and radiation for treatment of cancer” (priority 1999, dated 2002)
# Entries after “also recorded” stand apart in the source; their conditions may differ. Structures can show the parent of a compound that is named as a salt. Starred links: 1 amine or outer side, 2 acyl side, 3 side chain; linkers in the order of their positions; H or OH if unused. Positions of bridges follow the written chain, without caps; N, C: chain ends. Non-standard residues stand in square brackets, D forms with d. Residues, ends and D or L forms follow the SMILES beside them. Chains are numbered I, II in the order given. Actinocin(9to1) = Cc1c2oc3c(C)ccc(C(=O)[*:1])c3nc-2c(C(=O)[*:2])c(N)c1=O; NMeV = CN[C@H](C(=O)O)C(C)C; Sar = CNCC(=O)O
# Columns and labels:
# [1] = Tolerability in human clinical studies; type: in vivo
# Experimental: Cancer patients were administered lucanthone hydrochloride in a total dose of 10 mg/Kg per day. The patients were given the drug in three divided doses in order to maintain blood and tissue levels. […] Lucanthone hydrochloride 250 mg tablets for clinical use [GRH/0/1581] were a gift of the Wellcome Foundation. Nausea and other side effects were not observed when patients received 10 mg/Kg.
# Standard whole brain radiation, 30 Gy with an 8 MeV linear accelerator in ten equal doses over 2 weeks, was given in conjunction with lucanthone at 10 mg/Kg in three doses/day. Patients were assigned to radiation alone or radiation and lucanthone from a table of random numbers. Tumor sizes for each patient were determined before and after therapy independently by two neuroradiologists who had no knowledge of the protocol assignments.
# Both treatments were omitted on weekends and were stopped after ten treatment days. […] No other chemotherapy was given during this time, except steroids, which is standard treatment with patients with brain metastases.
# [2] = reason for use as imaging control; cited from earlier work
# [3] = Gamma camera imaging of radiolabeled rat models; type: in vivo; details: rats; intravenous radiotracer; pinhole collimator
# Experimental: Rats were injected with ^125I-labeled lucanthone and ^99mTc-pertechnetate. Lucanthone hydrochloride used for ^125I labeling was 97.5% pure by HPLC mass spectroscopy (Sterling Winthrop Research Institute, R009CJ). ^125I labeled lucanthone was prepared by a modification of the chloramine T method, to be described in detail in a separate publication [Moran JK, Li Y, Deng HF, Labeling and biodistribution of lucanthone (in preparation)]. The product identity was confirmed by thin layer chromatography. ^99mTc-pertechnetate was obtained from a conventional laboratory supplier. The image acquisitions were performed using a Picker Dyna Camera 4C using Nuclear MAC imaging software running on a Power MAC 8100/80 AV computer. Images were obtained using a pinhole collimator with a collimator to rat distance of 6.5 cm.
# Each animal was imaged using ^99mTc-pertechnetate (3.7 MBq). […] Therefore, a photopenic area in the image corresponds to the location of the rat brain.
# Twenty-four hours following administration of ^99mTc-pertechnetate, ^125I lucanthone was administered to each test animal. Images were acquired in the left lateral position every 10 min after intravenous administration of 1.1 MBq of ^125I lucanthone.
# [4] = systemic chemotherapy; cited from earlier work
# [5] = Tissue distribution of ^3H lucanthone in tumor-bearing mice; type: in vivo, C3H-HeHa mice
# Experimental: Ten six-week-old 18-20 gram female C3H-HeHa mice obtained from West Seneca Laboratories (West Seneca, N.Y.) were injected subcutaneously in the right nipple line with 1.4×10^6 viable C3H-BA mammary adenocarcinoma cells. With such inocula, 1-2-mm tumors were detectable within 3 days. If allowed to grow, they killed the mice in 36-38 days. This highly invasive tumor could grow rapidly from inocula as low as 10^4 cells.
# In order to minimize the influence of tumor size on drug distribution, drug was administered at various times during the course of tumor growth. Each day, from the seventh to eleventh day after injection, two mice were injected intraperitoneally with 1.27 mg^3 H lucanthone methanesulfonate. Lucanthone methanesulfonate, after being labeled by tritium exchange of hydrogen, was 96%-99% pure by thin layer chromatography. Before injection in mice, the specific radioactivity of ^3H lucanthone, originally 135 MBq/mg, was reduced to 67.5 MBq/mg by dilution with unlabeled lucanthone methanesulfonate. The total dose of radioactivity was 8.74 MBq (236 μCi) in 0.44 ml. All mice were sacrificed on the twelfth day, at which time the tumors were all approximately the same size, 7-12 mm in greatest diameter.
# Distribution of tritium-labeled material in tissues represents lucanthone and its metabolites. Following sacrifice by cervical dislocation, the wet weight of samples of various organ or tumor tissue was determined immediately. Samples (about 50 mg each) were placed in glass scintillation vials with metal foil-lined caps. An alkaline tissue solubilizer, Protosol (DuPont—NEN), was added for digestion; radioactivity was determined by liquid scintillation techniques, as recommended by the manufacturer. Quench corrections were made for each sample to avoid interference from colored substances in individual samples. Hair was shaved from the skin samples to avoid its contribution to the weight of the sample.
compound,measurement,setting,value
CCN(CC)CCNc1ccc(C)c2sc3ccccc3c(=O)c12 [lucanthone hydrochloride],Tolerability of total dose,"[1]; cancer patients, 10 mg/Kg per day in three divided doses",well tolerated
same,Nausea and other side effects,[1]; patients received 10 mg/Kg,not observed
^99mTc-pertechnetate,Crossing of the blood-brain barrier (known property),[2],known not to cross the blood-brain barrier
same,Photopenic area at the location of the brain in gamma camera scans,[3],show a photopenic area in the animal's head
"Cc1c2oc3c(C)ccc(C(=O)N[C@@H]4C(=O)N[C@H](C(C)C)C(=O)N5CCC[C@H]5C(=O)N(C)CC(=O)N(C)[C@@H](C(C)C)C(=O)O[C@@H]4C)c3nc-2c(C(=O)N[C@@H]2C(=O)N[C@H](C(C)C)C(=O)N3CCC[C@H]3C(=O)N(C)CC(=O)N(C)[C@@H](C(C)C)C(=O)O[C@@H]2C)c(N)c1=O [actinomycin D] (I: T[dV]P[Sar][NMeV] / II: T[dV]P[Sar][NMeV]; ester I:1-I:C, II:1-II:C; linker I:N-II:N via Actinocin(9to1))",Crossing of the blood-brain barrier,[4],fail to cross the blood-brain barrier in useful amounts
COc1cc([C@@H]2c3cc4c(cc3[C@@H](O[C@@H]3O[C@@H]5CO[C@@H](C)O[C@H]5[C@H](O)[C@H]3O)[C@H]3COC(=O)[C@H]23)OCO4)cc(OC)c1O [etoposide],Crossing of the blood-brain barrier,[4],fail to cross the blood-brain barrier in useful amounts; also recorded: crosses the blood-brain barrier poorly
CCN(CC)CCNc1ccc(C)c2sc3ccccc3c(=O)c12 [^3H lucanthone],^3H label in tumor tissue relative to skin and muscle,"[5]; first and second days following intraperitoneal drug injection, C3H-BA mammary adenocarcinoma",Enrichment of the ^3H label was detected in tumor tissue relative to skin and muscle
same,"^3H lucanthone uptake and removal in brain, lung and spleen",[5]; intraperitoneal injection,little difference
same,^3H label concentration in livers and kidneys compared with tumor,"[5]; intraperitoneal injection, principal excretory organs",higher concentrations were found than in the tumor
